The test system of experiment [1] is CaSki cervical cancer cell line. Nature of the experiment: MTT assay for cell viability, IC50 determination. The class given is cell-based. How it is done: (§1) Cells were plated in 96-well plates and treated with varying concentrations of a test compound for 48 hours, after which MTT dye, 3-(4,5-dimethylthiazol-2-yl)-2,5-diphenyltetrazolium bromide (Sigma), was added, and crystals solubilised 4 hours later using Solubilisation Reagent (10% SLS in 0.01 M HCl). Absorbencies were measured at 595 nm the following day using a BioTek microplate spectrophotometer (Winooski, Vt., USA) and IC50 curves were generated using GraphPad Prism.
In general terms: Formazan colour is commonly taken as a measure of viable cells.

Experiment [2] deals with HeLa cervical cancer cell line. Description: MTT assay for cell viability, IC50 determination. The class given is cell-based. To be noted: for IC50: Homo sapiens, HeLa. How it is done:
as §1

The subject of experiment [3] is KYSE180 oesophageal cancer cell line. Nature of the experiment: MTT assay for cell viability, IC50 determination. To be noted: Homo sapiens, KYSE-180, 48 hours. The class given is cell-based. How it is done:
as §1

Experiment [4] relates to WHCO5 oesophageal cancer cell line. Nature of the experiment: MTT assay for cell viability, IC50 determination. The class given is cell-based, human. To be noted: Homo sapiens. How it is done: as §1
The subject of experiment [5] is MCF7 breast cancer cell line. Description: MTT assay for cell viability, IC50 determination. Type of experiment: cell-based. The conditions noted are these: Homo sapiens. How it is done:
as §1

The nature of experiment [6]: MTT assay for cell viability, IC50 determination. Type of experiment: cell-based. To be noted: Homo sapiens, MCF-12A, MCF12A. How it is done:
as §1

Experiment [7] deals with KYSE150 oesophageal cancer cell line. Description: MTT assay for cell viability, IC50 determination. To be noted: Homo sapiens, KYSE-150. The class given is cell-based. How it is done:
as §1

In experiment [8] the test system is MDA-MB-231 breast cancer cell line. Description: MTT assay for cell viability, IC50 determination. The class given is cell-based. The conditions noted are these: Homo sapiens. How it is done:
as §1

The test system of experiment [9] is SVWI38 transformed cell line. Nature of the experiment: MTT assay for cell viability, IC50 determination. Type of experiment: cell-based. How it is done:
as §1

Experiment [10] has as its system WI38 non-cancer cell line. Description: MTT assay for cell viability, IC50 determination. Type of experiment: cell-based. The conditions noted are these: Homo sapiens, WI-38. How it is done:
as §1

In experiment [11] the test system is DMB normal skin fibroblasts (non-cancer). Nature of the experiment: MTT assay for cell viability, IC50 determination. The conditions noted are these: Skin fibroblast. The class given is cell-based. How it is done:
as §1

The test system of experiment [12] is cancer cell lines. Description: MTT cell viability, summary statements over panels of cancer cell lines. The class given is cell-based. To be noted: CaSki, HeLa, WHCO5, KYSE150, MCF12A, MCF7, MDA-MB-231, SVW138 (Table 4); read-out: IC50 values. How it is done: as §1
Experiment [13] has as its system NFAT transcriptional activity in NFAT-transfected HeLa cells. Description: NFAT luciferase reporter assay. Type of experiment: cell-based. The conditions noted are these: stimulated with TPA and ionomycin (FIGS. 16-20). How it is done: To assay for NFAT luciferase activity, 30 000 HeLa cells were plated per well in 24-well plates, and transfected with 50 ng GFP-NFAT plasmid (Addgene plasmid #24219, gift of Jerry Crabtree (Beals C R, Clipstone N A, Ho S N, Crabtree G R. Nuclear localization of NF-ATc by a calcineurin-dependent, cyclosporin-sensitive intramolecular interaction. Genes Dev 1997 Apr. 1; 11(7):824-34)), 50 ng NFAT-luciferase (Addgene plasmid #10959, gift of Toren Finkel (Ichida M, Finkel T. Ras regulates NFAT3 activity in cardiac myocytes. J Biol Chem 2001 Feb. 2; 276(5):3524-30)), and 5 ng pRL-TK, using 0.4 μl Genecellin™ Transfection Reagent (Celtic Molecular Diagnostics, South Africa). The NFAT-luciferase reporter plasmid contains three tandem repeats of a 30 bp fragment of the IL-2 promoter known to bind NFAT. The following day cells were treated with 10 or 15 μM Compound A and after an overnight incubation, stimulated with 100 nM TPA (Sigma) and 1.3 μM Ionomycin (Santa Cruz Biotechnology, Santa Cruz, Calif., USA) for 5 hours, following which luciferase activity was measured.
An assay for nuclear NFAT following ionomycin and Compound A treatment was carried out, using an NFAT-luciferase reporter that is activated by nuclear NFAT. The phorbol ester TPA was used to co-stimulate NFAT, as it has been shown previously that TPA and ionomycin elicit synergistic stimulation of NFAT luciferase activity (Northrop J P, Ullman K S, Crabtree G R. Characterization of the nuclear and cytoplasmic components of the lymphoid-specific nuclear factor of activated T cells (NF-AT) complex. J Biol Chem 1993 Feb. 5; 268(4):2917-23).
(In general: A reporter such as luciferase makes a cellular process visible.)

The mark [14] stands for this setting: Homo sapiens, Ca-Ski, 48 h, MTT, read-out: IC50.
The mark [15] stands for this setting: 48 h, 48 hours, MTT, read-out: IC50.

Consider 23 compounds from patent US10220033B2, “Substituted benzoxazepine for cancer therapy” (University of Cape Town, priority 2014, dated 2019).

Read-outs that look alike come from different tables or passages of the source.

Turning to `Nc1c(-c2nc3ccccc3[nH]2)c2nc3ccccc3nc2n1CCCO` [Compound H], the IC50 in experiment [1] (setting [14]) is 10 µM; in [2] (setting [15]), 4.04 µM; in [3] it was 1.18 µM; in [4] (48 h, MTT), 6.3 µM.
`CCCCn1c(N)c(-c2nc3ccccc3[nH]2)c2nc3ccccc3nc21` [Compound E]: the IC50 in experiment [1] (setting [14]) came to 14.3 µM; in experiment [2] (setting [15]), 8.29 µM; in [3], 8.79 µM; in experiment [4] (48 h, MTT), 5.94 µM.
On the same counts, the results for `Nc1c(-c2nc3ccccc3[nH]2)c2nc3ccccc3nc2n1CCCn1ccnc1` [Compound C] are 9.49 µM, 7.19 µM, 8.46 µM and 8.32 µM.
Turning to `OCCCNCc1cc2cc3c(cc2nc1N1CCN(c2cccc(Cl)c2)CC1)OCO3` [XV, 3-[[6-[4-(3-chlorophenyl)piperazin-1-yl]-[1,3]dioxolo[4,5-g]quinolin-7-yl]methylamino]propan-1-ol], the IC50 in experiment [1] (setting [14]) came to 37.7 µM.
Regarding `c1ccc2[nH]cnc2c1` [Benzimidazole, benzimidazole, reference compound], the IC50 in experiment [2] (HeLa cells (FIG. 3B), read-out: IC50 concentration (cell-killing effect)) was 2080 µM.
For the compound `Clc1ccccc1COc1nc2cc3c(cc2cc1CNCc1cn2c(n1)SCC2)CCC3` [Compound IV, ({2-[(2-chlorophenyl)methoxy]-6H,7H,8H-cyclopenta[g]quinolin-3-yl}methyl)({2H,3H-imidazo[2,1-b][1,3]thiazol-6-ylmethyl})amine], the IC50 in experiment [5] (48 hours, MTT) was determined as 14 µM; in experiment [6] (48 hours, MTT), 11.4 µM; in experiment [7] (KYSE150, 48 hours, MTT) it was 11.2 µM; in experiment [1] (setting [14]), 8.69 µM; in experiment [8] (48 hours, MTT) it was 8.01 µM; in [9] (SVWI38 transformed, 48 hours, MTT) it was 12.9 µM. Further, the IC50 in experiment [2] (setting [15]) is 8.62 µM; in experiment [10] (WI38 non-cancer, 48 hours, MTT) it was 25.1 µM; in experiment [11] (DMB non-cancer, 48 hours, MTT), 8.27 µM; in experiment [4] (48 h, MTT), 17.9 µM; in experiment [12], 8 to 18 µM.
In the case of `CC(C)CCn1c(N)c(-c2nc3ccccc3[nH]2)c2nc3ccccc3nc21` [Compound G], the IC50 in experiment [1] (setting [14]) came to 6.17 µM; in experiment [2] (setting [15]), 6.38 µM; in experiment [3] it was 5.51 µM; in experiment [4] (48 h, MTT), 6.14 µM.
On to `Cc1ccc2cc(CNCCCN3C[C@@H]4C=C[C@H]3C4)c(N3CCC(O)CC3)nc2c1` (stereo in doubt) [VIII, 1-[3-[[3-[(1S,4R)-5-azabicyclo[2.2.1]hept-2-en-5-yl]propylamino]methyl]-7-methyl-2-quinolyl]piperidin4-ol], for which, in experiment [1] (setting [14]), the IC50 stood at 24.4 µM.
`CN1CCc2cc(CNC3CCN(c4ccc(C(=O)NC5CCCC5)cc4)CC3)ccc21` [XVI, N-cyclopentyl-4-[4-[(1-methylindolin-5-yl)methylamino]-1-piperidyl]benzamide]: the IC50 in experiment [1] (setting [14]) amounted to 46.8 µM.
As for `c1ccc2nccnc2c1` [quinoxaline, reference compound], in [2] (HeLa cells, concentration range of up to 6.5 mM (FIG. 3A)), the cell-killing effect entry is recorded as “No cell-killing effect was observed”.
For `CC(C)Cn1c(N)c(-c2nc3ccccc3[nH]2)c2nc3ccccc3nc21` [Compound F], the IC50 in [1] (setting [14]) was 7.55 µM; in [2] (setting [15]), 6.77 µM; in experiment [3], 5.35 µM; in experiment [4] (48 h, MTT), 6.59 µM.
With `Cc1ccc2c(c1)c1c(n2C[C@@H](O)CNC[C@@H]2CCCO2)CCCC1` [XIV, (2S)-1-(6-methyl-1,2,3,4-tetrahydrocarbazol-9-yl)-3-[[(2S)-tetrahydrofuran-2-yl]methylamino]propan-2-ol], the IC50 in [1] (setting [14]) was 31.7 µM.
As for `Cn1c(-c2c(N)n(CCCN3CCOCC3)c3nc4ccccc4nc23)nc2ccccc21` [Compound I], the IC50 entry was “Does not converge” in experiment [1] (48 hours, MTT); 15.4 µM in [2] (setting [15]); 22 µM in experiment [3]; 19.6 µM in [4] (48 h, MTT).
Turning to `CCN(CC)CCCn1c(N)c(-c2nc3ccccc3[nH]2)c2nc3ccccc3nc21` [Compound B], the IC50 in [1] (setting [14]) was 5.59 µM; in [2] (setting [15]) it was 6.36 µM; in [3] it was 6.03 µM; in experiment [4] (48 h, MTT) it was 5.7 µM.
As for `Cc1ccc(OC[C@@H](O)CN2CCN(CCO)CC2)cc1C` [VII, (2S)-1-(3,4-dimethylphenoxy)-3-[4-(2-hydroxyethyl)piperazin-1-yl]propan-2-ol], in experiment [1] (setting [14]), the IC50 was 22.2 µM.
Still for that read-out and setting: with `COc1ccc(C)cc1NC(=O)[C@@H](NCc1nc2ccccc2n1C)c1ccccc1` [VI, (2S)-N-(2-methoxy-5-methyl-phenyl)-2-[(1-methylbenzimidazol-2-yl)methylamino]-2-phenyl-acetamide] the figure was 19.1 µM; with `CCOC(=O)c1cc2c(=O)n3cc(C)ccc3nc2[n+](CCCN2CCOCC2)c1N` [V, ethyl 2-imino-8-methyl-1-[3-(4-morpholinyl)propyl]-5-oxo-1,5-dihydro-2H-dipyrido[1,2-a:2′,3′-d]pyrimidine-3-carboxylate], 16.4 µM.
On to `Cc1csc2nc(CNCc3cc4cc5c(cc4n(CCN4CCCCC4)c3=O)CCC5)cn12` [Compound XI, 3-[[(3-methylimidazo[2,1-b]thiazol-6-yl)methylamino]methyl]-1-[2-(1-piperidyl)ethyl]-7,8-dihydro-6H-cyclopenta[g]quinolin-2-one], for which the IC50 in [5] (compound in salt form) amounted to 95 µM; in [6] (compound in salt form) it was 61.8 µM; in [7] (Kyse150, compound in salt form) it was 40.1 µM; in experiment [1] (setting [14]), 26.9 µM; in experiment [1] (Homo sapiens, Ca-Ski, compound in salt form, read-out: IC50), 26.9 µM; in [8] (compound in salt form), 32.7 µM. The IC50 turned out to be 41.1 µM in [9] (SVWI38, compound in salt form); 33.1 µM in experiment [2] (compound in salt form, read-out: IC50); 35 µM in experiment [10] (WI38, compound in salt form); 31.2 µM in experiment [11] (DMB, compound in salt form); 17 µM in [4] (compound in salt form).
In the case of `CCCn1c(N)c(-c2nc3ccccc3[nH]2)c2nc3ccccc3nc21` [Compound D], the IC50 in experiment [1] (setting [14]) was 12.2 µM; in experiment [2] (setting [15]) it was 8.38 µM; in experiment [3] it was 14.8 µM; in [4] (48 h, MTT), 12.2 µM.
As for `CCCn1c(N)c(-c2nc3ccccc3n2C)c2nc3ccccc3nc21` [Compound J], the IC50 came out at 38.4 µM in experiment [1] (setting [14]); 22.2 µM in [2] (setting [15]); 33.1 µM in experiment [3]; 11.8 µM in experiment [4] (48 h, MTT).
As to `COc1cc2ncnc(Nc3cccc(Cl)c3)c2cc1OC` [AG 1478, reference compound], in [13], the “NFAT activation (NFAT-luciferase reporter)” value is “no change”.
As for `CCn1c(N)c(-c2nc3ccccc3[nH]2)c2nc3ccccc3nc21` [Compound K], the IC50 in experiment [1] (setting [14]) came to 6.62 µM; in experiment [2] (setting [15]), 4.16 µM; in experiment [3] it was 7.23 µM; in [4] (48 h, MTT), 6.79 µM.
As to Ivermectin [reference compound], the “NFAT activation (NFAT-luciferase reporter)” value in experiment [13] was “significantly diminished”.
